The structures appear in SMILES notation.

We go through one molecule from paper PMC6222886, “Isolation of Tricin as a Xanthine Oxidase Inhibitor from Sweet White Clover (Melilotus albus) and Its Distribution in Selected Gramineae Species” (Molecules : A Journal of Synthetic Chemistry and Natural …, 2018).

The target of the assay is T1, xanthine oxidase (XO) (Bos taurus, UniProt P80457).
T1 construct: gene XDH
The assay is described as follows: xanthine oxidase inhibition assay with Lineweaver-Burk kinetics (IC50 […]; KI […]). It counts as biochemical.

T1 sequence (P80457 2-1332): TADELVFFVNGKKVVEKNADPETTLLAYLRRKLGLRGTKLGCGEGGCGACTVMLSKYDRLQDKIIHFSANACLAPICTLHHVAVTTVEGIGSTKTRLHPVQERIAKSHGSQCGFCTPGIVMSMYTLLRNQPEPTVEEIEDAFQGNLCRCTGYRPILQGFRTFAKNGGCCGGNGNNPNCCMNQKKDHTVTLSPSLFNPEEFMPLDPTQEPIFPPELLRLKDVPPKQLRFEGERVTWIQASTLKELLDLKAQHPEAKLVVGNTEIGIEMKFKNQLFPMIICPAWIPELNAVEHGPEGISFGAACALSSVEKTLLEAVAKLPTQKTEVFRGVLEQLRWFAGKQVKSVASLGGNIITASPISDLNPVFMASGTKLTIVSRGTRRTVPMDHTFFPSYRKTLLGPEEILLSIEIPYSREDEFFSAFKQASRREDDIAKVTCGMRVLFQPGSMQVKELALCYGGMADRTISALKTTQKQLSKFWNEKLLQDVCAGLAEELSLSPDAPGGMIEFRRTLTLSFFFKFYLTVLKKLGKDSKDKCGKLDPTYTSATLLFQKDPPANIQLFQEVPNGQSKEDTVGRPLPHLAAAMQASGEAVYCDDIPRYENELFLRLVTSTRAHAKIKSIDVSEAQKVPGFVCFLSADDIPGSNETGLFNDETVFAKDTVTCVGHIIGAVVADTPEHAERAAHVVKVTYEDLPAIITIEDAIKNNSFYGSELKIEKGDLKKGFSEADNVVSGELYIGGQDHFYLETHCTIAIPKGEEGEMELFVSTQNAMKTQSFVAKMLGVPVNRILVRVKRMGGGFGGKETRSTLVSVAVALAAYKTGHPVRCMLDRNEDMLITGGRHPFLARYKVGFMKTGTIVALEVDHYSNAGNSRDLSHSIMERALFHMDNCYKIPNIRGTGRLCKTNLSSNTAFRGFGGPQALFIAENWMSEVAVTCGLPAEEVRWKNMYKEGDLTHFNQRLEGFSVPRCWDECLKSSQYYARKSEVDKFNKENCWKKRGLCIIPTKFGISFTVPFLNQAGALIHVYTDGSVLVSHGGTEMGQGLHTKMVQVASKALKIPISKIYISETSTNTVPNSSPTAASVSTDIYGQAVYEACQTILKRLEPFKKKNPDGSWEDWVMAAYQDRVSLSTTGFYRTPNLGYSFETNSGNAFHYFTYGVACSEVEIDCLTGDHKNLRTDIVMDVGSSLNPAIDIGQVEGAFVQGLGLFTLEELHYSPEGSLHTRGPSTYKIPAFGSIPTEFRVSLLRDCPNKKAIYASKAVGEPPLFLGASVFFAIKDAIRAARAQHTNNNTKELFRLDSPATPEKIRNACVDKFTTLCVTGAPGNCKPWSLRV

In turn, `COc1cc(-c2cc(=O)c3c(O)cc(O)cc3o2)cc(OC)c1O` [tricin] had a Ki of 470 nM.

Usually Ki stands for the equilibrium dissociation constant of an inhibitor or competing ligand from its target.
